Measured values published in article PMC4494942, “Sorafenib and DE605, a novel c-Met inhibitor, synergistically suppress hepatocellular carcinoma” (Oncotarget, 2015).

Columns and labels:
PLC/PRF/5 cells [1] = assay: MTT cell viability assay, PLC/PRF/5; type: cell-based, human; conditions: PLC/PRF/5, 72 h
Experimental: (§1) Cells were seeded in 96-well plates (3,000 cells/well) and incubated overnight for attachment, and were then treated with indicated agents in 10% FBS-supplemented medium for 72 hours. The medium was replaced with MTT (0.5 mg/ml) at 37°C for 2 hours. After removal of medium, the cells were lysed with 200 μl per well dimethyl sulfoxide (DMSO), and absorbance at 570 nm was measured and the values of 50% inhibition concentration (IC50) for each drug were determined. Cell viability was evaluated by measuring the optical density at 570 nm using an Automated Microplate Reader (Bio-Tek, USA). The percentage of viable cells was calculated using the following formula: cell viability (%) = (OD of treated cells/OD of control cells) × 100. All assays were performed in triplicate with at least 3 independent experiments.

[2] = test system: MHCC97H human HCC xenograft model and HuPrime model with human HCC explants; conditions: cited from earlier work
HuH7 cells = assay: MTT cell viability assay, HuH7; type: cell-based; conditions: Homo sapiens, Huh-7, HuH7, 72 h
Experimental: as §1

PLC/PRF/5 cells [3] = assay: cell-cycle distribution by flow cytometry; type: cell-based, human; conditions: PLC/PRF/5, 72 h, single agent
Experimental: As sorafenib and c-Met inhibitors reportedly induce apoptosis in cancer cells, we examined the impact of our drug combination on programmed cell death. First, the effect of co-administration of DE605 and sorafenib on cell-cycle distribution was analyzed by flow cytometric analysis.
Figure 3 Effects of sorafenib in combination with DE605 on cell-cycle progression in PLC/PRF/5 cells (A) PLC/PRF/5 cells were treated with the indicated drugs for 72 hours, and cell-cycle distribution was analyzed by flow cytometry. (B) Statistical analysis of sub-G1 phase in PLC/PRF/5 cells exposed to DMSO, sorafenib alone, DE605 alone, or in sorafenib/DE605 combination. Data, mean ± SD (n = 3).
After drug treatment, the cells were harvested by trypsinization, washed with PBS, then pellets were resuspended and fixed in ethanol (70%, v/v) at −20°C overnight, and washed once with PBS. After centrifugation, the cells were incubated for 15 minutes at room temperature in 0.1 ml of phosphate-citric acid buffer. Cells were stained with propidium iodide staining buffer containing Triton X-100 (0.1%, v/v), RNase A (100 μg/ml), and propidium iodide (80 μg/ml) for 30 minutes in the dark. Cell-cycle distribution was analyzed by flow cytometry with CellQuest software (Becton Dickinson).

[4] = test system: PLC/PRF/5 tumor xenografts; assay: PLC/PRF/5 tumor xenograft model; conditions: oral, qd, 28 days; sorafenib 60 mg/kg, DE605 80 mg/kg; versus control group
Experimental: (B) body weights were measured twice per week, and are expressed as mean ± SD. (C-D) IHC analysis of intratumoral proliferation in PLC/PRF/5 xenograft tumors. Tumors were harvested and paraffin-embedded tumor tissues were subjected to immunostaining for Ki-67 (C) and TUNEL (D). Images were captured by Zeiss Axioskop-2 microscope under 200× magnification. Scale bar, 100 μm.
All surgery was performed under sodium pentobarbital anesthesia, and all efforts were made to minimize suffering. Female athymic nude mice of 4–5 weeks of age were purchased from Shanghai SLAC Laboratory Animal Co., Ltd. (Shanghai, China) and were housed in the Animal Resource Facility. […] Tumors were monitored twice weekly. As previously described [54], tumor size was measured on two axes with the aid of Vernier calipers and tumor volume (mm^3) was calculated using the formula: 1/2(L × W^2) where L is the longest and W is the shortest axis. […] For tumor growth inhibition (TGI), the antitumor effects are calculated by dividing the tumor volumes from treatment groups by those of the control groups and multiplied by 100. […]
The type of cell death (necrosis/apoptosis) was evaluated by the terminal deoxynucleotidyl transferase-mediated deoxyuridine biotin nick-end labeling (TUNEL) assay with an Apo-Direct kit (Pharmingen, San Diego, CA) as previously reported [55]. […]

Hep3B cells = assay: MTT cell viability assay, Hep3B; conditions: Homo sapiens, 72 h, read-out: cell viability IC50
Experimental: as §1

HepG2 cells = assay: MTT cell viability assay, HepG2; type: cell-based; conditions: Homo sapiens, HepG2, 72 h
Experimental: as §1

## O=C1NC(=O)[C@@H](c2cn3c4c(cccc24)CCC3)[C@@H]1c1c[nH]c2ccccc12 [tivantinib]
PLC/PRF/5 cells [1]; tivantinib 0.25 and 0.5 μM in combination with sorafenib
  interaction with sorafenib on cell viability (combination index): synergistic effect

## CN1CCC(COc2cnc(-c3cccc(Cn4nc(-c5cccc(C#N)c5)ccc4=O)c3)nc2)CC1 [MSC2156119J]
[2]
  efficacy of combination with sorafenib: did not improve efficacy

## CNC(=O)c1cc(Oc2ccc(NC(=O)Nc3ccc(Cl)c(C(F)(F)F)c3)cc2)ccn1 [sorafenib]
HuH7 cells
  IC50: 2400 nM
PLC/PRF/5 cells [3]
  cell-cycle arrest: no appreciable cell-cycle arrest
[4]
  tumor growth inhibition (TGI): 17.3%
Hep3B cells
  IC50: 10.5 µM
HepG2 cells
  IC50: 3.3 µM
PLC/PRF/5 cells [1]; Homo sapiens, MTT
  IC50: 6.7 µM
